Test results as given in patent US4725683A, “Fluorophenoxyphenoxypropionates and derivatives thereof” (The Dow Chemical Company, priority 1985, dated 1988).

What was measured:
Assay type in all cases: in vivo
[1] = system: Wild Oats; test: Postemergent activity; conditions: Avena fatua, post-emergence, 336 h, read-out: % Control
Experimental: (§1) Representative compositions of the present invention were evaluated for the postemergence control of species of plants listed in Table A. In these evaluations, pots of the plant species listed in Table A, grown to a height of about 10 cms, were used. Aqueous spray compositions, containing various amounts of 2-[4-(2-fluoro-4-trifluoromethylphenoxy)-phenoxy]propionic acid methy ester, i.e., 125 ppm, 62.5 ppm, 31.25 ppm, 15.6 ppm, 7.8 ppm and 3.9 ppm, respectively, were applied to separate pots. The spray compositions were made by mixing the active ingredient in acetone to 1/2 the final volume, i.e., twice the final concentration. An equal amount of water was added to the active ingredient/acetone mixture wherein the water contained 0.1 percent by weight of TWEEN® 200 surfactant. The application to the plants was made to the point of run-off and was carried out with conventional spraying equipment. Other pots were sprayed with similar compositions containing no toxicant to serve as controls. Thereafter, the pots were maintained under conditions conducive for plant growth. Two weeks after treatment, the pots were examined for plant growth and evaluated on a scale of 0 to 100 where 0 represents no effect and 100 represents complete kill. The results of the examination of the treated pots are set forth below in Table A.
(§2) Substantially the same procedures as those described in Example A were repeated except that the active ingredients were 2-[4-(4-chloro-2-fluorophenoxy)phenoxy]propionic acid; methyl ester and its R-enantiomer and 2-(4-(4-bromo-2-fluorophenoxy)phenoxy propionic acid; methyl ester and its R enantiomer. The results are listed below in Table B.
(§3) In further operations employing the above general procedures and the indicated test compounds the following results were obtained: […]

[2] = system: Wheat; test: Postemergent activity; conditions: Triticum aestivum, post-emergence, 336 h, read-out: % Control
Experimental: as §1, §2, §3

[3] = system: Crabgrass; test: Preemergent activity
Experimental: (§4) In a representative operation, 2-[4-(2-fluoro-4-trifluoromethylphenoxy)phenoxy]propionic acid methyl ester, to be utilized in a series of tests, is dissolved in acetone to one half of the final volume (twice the final concentration) to be used and the acetone solution in each case is admixed with an equal volume of water containing 0.1 percent by weight of Tween-20 surface active material (Tween-20 is a trademark of Atlas Chemical Company). The composition, generally in the nature of an emulsion, was employed to treat separate respective seed beds of sandy loam soil of good nutrient content wherein each seed bed contained separate groups of good viable seeds, each group being of one of a known plant species. The various beds were positioned side by side and exposed to substantially identical conditions of temperature and light. Each bed was maintained so as to prevent any interaction with the test compound in different seed beds. Each seed bed was treated with the composition as a spray employing conventional spraying equipment to deposit a predetermined amount of the compound uniformly throughout the surface of the bed. Another seed bed was treated only with the acetone-Tween-20 water mixture with no chemical added to serve as a control.

[4] = system: Yellow Foxtail; test: Preemergent activity; conditions: Setaria, pre-emergence, read-out: Preemergence Control
Experimental: as §4

[5] = system: Johnson Grass; test: Preemergent activity; conditions: Sorghum halepense, pre-emergence, read-out: Preemergence Control
Experimental: as §4

[6] = system: Wild Oats; test: Preemergent activity; conditions: Avena fatua, pre-emergence, read-out: Preemergence Control
Experimental: as §4

[7] = system: Barnyard Grass; test: Preemergent activity; conditions: Echinochloa crus-galli, pre-emergence, read-out: Preemergence Control
Experimental: as §4

[8] = system: Wheat; test: Preemergent activity; conditions: Triticum aestivum, pre-emergence, read-out: Preemergence Control
Experimental: as §4

[9] = system: Cheatgrass; test: Postemergent activity
Experimental: (§5) Representative compositions of the present invention were evaluated for the postemergence control of species of plants listed in Table A. In these evaluations, pots of the plant species listed in Table A, grown to a height of about 10 cms, were used. […] The spray compositions were made by mixing the active ingredient in acetone to 1/2 the final volume, i.e., twice the final concentration. An equal amount of water was added to the active ingredient/acetone mixture wherein the water contained 0.1 percent by weight of TWEEN® 200 surfactant. The application to the plants was made to the point of run-off and was carried out with conventional spraying equipment. […] Thereafter, the pots were maintained under conditions conducive for plant growth.

[10] = system: Yellow Foxtail; test: Postemergent activity
Experimental: as §5

[11] = system: Barley; test: Postemergent activity
Experimental: as §5

[12] = system: Blackgrass; test: Postemergent activity
Experimental: as §5

[13] = system: Green Foxtail; test: Postemergent activity
Experimental: as §5

`COC(=O)[C@@H](C)Oc1ccc(Oc2ccc(Cl)cc2F)cc1` [4-Chloro-(R-Enantiomer), R enantiomer of 2-[4-(4-chloro-2-fluorophenoxy)phenoxy]propionic acid methyl ester] showed a pest or weed control at 7.8 ppm [1] of 40%, a pest or weed control at 15.6 ppm [1] of 80% and a pest or weed control at 31.25 ppm [1] of 100%. It also gave a pest or weed control at 62.5 ppm [1] of 100%, a pest or weed control at 125 ppm [1] of 100% and a plant injury at 7.8 ppm [2] of 0%. It also gave a plant injury at 15.6 ppm [2] of 0%, a plant injury at 31.25 ppm [2] of 0% and a plant injury at 62.5 ppm [2] of 70%. The plant injury at 125 ppm [2] was 60%, the “Preemergence Control” value ([3]; 0.07 kgs/hectare) was 70% and the “Preemergence Control” value ([3]; 0.14 kgs/hectare) was 98%. The “Preemergence Control” value ([3]; 0.28 kgs/hectare) was 100%, the “Preemergence Control” value ([3]; 0.56 kgs/hectare) was 100% and the “Preemergence Control” value ([3]; 1.12 kgs/hectare) was 100%. The pest or weed control at 70 g/ha ([4]; 0.07 kgs/hectare) was 0%, the pest or weed control at 140 g/ha ([4]; 0.14 kgs/hectare) was 0% and the pest or weed control at 280 g/ha ([4]; 0.28 kgs/hectare) was 30%. It also gave a pest or weed control at 560 g/ha ([4]; 0.56 kgs/hectare) of 95%, a pest or weed control at 1120 g/ha ([4]; 1.12 kgs/hectare) of 98% and a pest or weed control at 70 g/ha ([5]; 0.07 kgs/hectare) of 0%. For the same compound, the pest or weed control at 140 g/ha ([5]; 0.14 kgs/hectare) was 0%, the pest or weed control at 280 g/ha ([5]; 0.28 kgs/hectare) was 80% and the pest or weed control at 560 g/ha ([5]; 0.56 kgs/hectare) was 95%. It also gave a pest or weed control at 1120 g/ha ([5]; 1.12 kgs/hectare) of 98%, a pest or weed control at 70 g/ha ([6]; 0.07 kgs/hectare) of 0% and a pest or weed control at 140 g/ha ([6]; 0.14 kgs/hectare) of 0%. For the same compound, the pest or weed control at 280 g/ha ([6]; 0.28 kgs/hectare) was 0%, the pest or weed control at 560 g/ha ([6]; 0.56 kgs/hectare) was 60% and the pest or weed control at 1120 g/ha ([6]; 1.12 kgs/hectare) was 80%. It also gave a pest or weed control at 70 g/ha ([7]; 0.07 kgs/hectare) of 0%, a pest or weed control at 140 g/ha ([7]; 0.14 kgs/hectare) of 10% and a pest or weed control at 280 g/ha ([7]; 0.28 kgs/hectare) of 98%. The pest or weed control at 560 g/ha ([7]; 0.56 kgs/hectare) was 100%, the pest or weed control at 1120 g/ha ([7]; 1.12 kgs/hectare) was 100% and the plant injury at 70 g/ha ([8]; 0.07 kgs/hectare) was 0%. It also gave a plant injury at 140 g/ha ([8]; 0.14 kgs/hectare) of 0%, a plant injury at 280 g/ha ([8]; 0.28 kgs/hectare) of 0% and a plant injury at 560 g/ha ([8]; 0.56 kgs/hectare) of 10%. The plant injury at 1120 g/ha ([8]; 1.12 kgs/hectare) was 20%, the “% Control” value ([9]; 0.4 ppm) was 0% and the “% Control” value ([9]; 0.8 ppm) was 0%. The “% Control” value ([9]; 1.6 ppm) was 0%, the “% Control” value ([9]; 3.2 ppm) was 0% and the “% Control” value ([9]; 6.3 ppm) was 0%. For the same compound, the “% Control” value ([9]; 12.5 ppm) was 0%, the “% Control” value ([9]; 25 ppm) was 0% and the “% Control” value ([10]; 0.4 ppm) was 0%. For the same compound, the “% Control” value ([10]; 0.8 ppm) was 0%, the “% Control” value ([10]; 1.6 ppm) was 0% and the “% Control” value ([10]; 3.2 ppm) was 40%. For the same compound, the “% Control” value ([10]; 6.3 ppm) was 60%, the “% Control” value ([10]; 12.5 ppm) was 100% and the “% Control” value ([10]; 25 ppm) was 100%. The “% Control” value ([11]; 7.8 ppm) was 0%, the “% Control” value ([11]; 15.6 ppm) was 0% and the “% Control” value ([11]; 31.25 ppm) was 0%. For the same compound, the “% Control” value ([11]; 62.5 ppm) was 0%, the “% Control” value ([11]; 125 ppm) was 40% and the “% Control” value ([12]; 0.4 ppm) was 0%. The “% Control” value ([12]; 0.8 ppm) was 40%, the “% Control” value ([12]; 1.6 ppm) was 80% and the “% Control” value ([12]; 3.2 ppm) was 90%. The “% Control” value ([12]; 6.3 ppm) was 95%, the “% Control” value ([12]; 12.5 ppm) was 100% and the “% Control” value ([12]; 25 ppm) was 100%. For the same compound, the “% Control” value ([13]; 0.4 ppm) was 0%, the “% Control” value ([13]; 0.8 ppm) was 80% and the “% Control” value ([13]; 1.6 ppm) was 100%. The “% Control” value ([13]; 3.2 ppm) was 100%, the “% Control” value ([13]; 6.3 ppm) was 100% and the “% Control” value ([13]; 12.5 ppm) was 100%. The “% Control” value ([13]; 25 ppm) was 100%.
